Reference: ChEMBL document CHEMBL5126523, “Recent advances in DDR (DNA damage response) inhibitors for cancer therapy” (Eur J Med Chem, 2022)

How the values were obtained:
[1] = test system: NCI-H1299; test: Inhibition of cell proliferation in human NCI-H1299 cells incubated for 3 days by MTT assay; assay type: functional, cell-based; details: NCI-H1299, 72 h
[2] = molecular target: T1, Serine-protein kinase ATM (Homo sapiens, UniProt Q13315); test: Inhibition of ATM in human MCF7 cells […] incubated for 1 hr by Cell Western assay; assay type: cell-based
[3] = molecular target: T2, DNA-dependent protein kinase catalytic subunit (Homo sapiens, UniProt P78527); test: Inhibition of full-length human DNA-PK expressed in baculovirus expression system using p53 as substrate incubated for 1 hr in presence of ATP by ELISA
[4] = molecular target: T3, ATR/ATRIP (Homo sapiens, UniProt Q13535); test: Inhibition of full-length human recombinant FLAG-tagged ATR/c-Myc-tagged ATRIP using p53 as substrate incubated for 30 mins in presence of ATP by HTRF assay; assay type: protein-complex assay
[5] = test system: LoVo; test: Inhibition of cell growth in human LoVo cells assessed as measuring ATP content incubated for 3 days by Cell Titer Glo assay; assay type: functional, cell-based; details: 72 h
[6] = organism: Homo sapiens; test: Selectivity index, ratio of IC50 for ATM (unknown origin) to IC50 for ATR (unknown origin)
[7] = molecular target: Serine/threonine-protein kinase mTOR (Homo sapiens, UniProt P42345); test: Inhibition of mTOR (unknown origin)
[8] = molecular target: T1, Serine-protein kinase ATM; test: Inhibition of ATM (unknown origin)
[9] = organism: Homo sapiens; test: Selectivity index, ratio of IC50 for ATM (unknown origin) to IC50 for mTOR (unknown origin)
[10] = molecular target: Serine/threonine-protein kinase ATR (Homo sapiens, UniProt Q13535); test: Inhibition of ATR (unknown origin)
[11] = molecular target: T4, Phosphatidylinositol 4,5-bisphosphate 3-kinase catalytic subunit alpha isoform (Homo sapiens, UniProt P42336); test: Inhibition of PI3K-alpha (unknown origin)
[12] = organism: Homo sapiens; test: Selectivity index, ratio of IC50 for ATM (unknown origin) to IC50 for PI3K-alpha (unknown origin)
[13] = molecular target: T2, DNA-dependent protein kinase catalytic subunit; test: Inhibition of DNA-PK (unknown origin) incubated for 3 hrs by ADP-Glo kinase assay
[14] = molecular target: T2, DNA-dependent protein kinase catalytic subunit; test: Inhibition of DNA-PK (unknown origin) assessed as inhibition constant using Glu-Pro-Pro-Leu-Ser-Gln-Glu-Ala-Phe-Ala-Asp-Leu-Trp-Lys-Lys-Lys peptide as substrate incubated for 45 mins in presence of [33P]-ATP by scintillation counting method
[15] = molecular target: T3, ATR/ATRIP; test: Inhibition of human FLAG-tagged ATR/c-Myc-tagged ATRIP expressed in mammalian expression system using p53 as substrate incubated for 2 hrs by fluorescence based assay
[16] = test system: HCT-116; test: Inhibition of cell proliferation in human HCT-116 cells incubated for 72 hrs by SRB assay; assay type: functional, cell-based; details: HCT-116, 72 h
[17] = test system: MDA-MB-231; test: Inhibition of cell proliferation in human MDA-MB-231 cells incubated for 72 hrs by SRB assay; assay type: functional, cell-based; details: MDA-MB-231, 72 h
[18] = test system: HCC1937; test: Inhibition of cell proliferation in human HCC1937 cells incubated for 72 hrs by SRB assay; assay type: functional, cell-based; details: HCC1937, 72 h
[19] = molecular target: T4, Phosphatidylinositol 4,5-bisphosphate 3-kinase catalytic subunit alpha isoform; test: Inhibition of PI3K-alpha (unknown origin) incubated for 40 mins in presence of ATP by ELISA
[20] = molecular target: T5, Poly [ADP-ribose] polymerase 1 (Homo sapiens, UniProt P09874); test: Inhibition of PARP1 (unknown origin) incubated for 1 hr by chemiluminescence assay
[21] = molecular target: Poly [ADP-ribose] polymerase tankyrase-2 (Homo sapiens, UniProt Q9H2K2); test: Inhibition of tankyrase 2 (unknown origin) incubated for 1 hr by chemiluminescence based assay
[22] = molecular target: Poly [ADP-ribose] polymerase tankyrase-1 (Homo sapiens, UniProt O95271); test: Inhibition of tankyrase 1 (unknown origin) incubated for 1 hr by chemiluminescence assay
[23] = test system: HCT-116; test: Inhibition of cell proliferation in human HCT-116 incubated for 48 hrs by Cell Titer Glo assay; assay type: functional, cell-based; details: HCT-116, 48 h
[24] = molecular target: T3, ATR/ATRIP; test: Inhibition of full-length recombinant human ATR/ATRIP using p53 as substrate incubated for 30 mins in presence of ATP by HTRF assay; assay type: protein-complex assay
[25] = test system: NCI-H23; test: Inhibition of cell proliferation in human NCI-H23 incubated for 48 hrs by Cell Titer Glo assay; assay type: functional, cell-based; details: NCI-H23, 48 h
[26] = Oral bioavailability in BALB/c mouse at 2 mg/kg by LC-MS/MS analysis; assay type: ADME, organism-based; details: in vivo
[27] = Cmax in BALB/c mouse at 2 mg/kg, po by LC-MS/MS analysis; assay type: ADME, organism-based; parameters: dose 2 mg/kg, route po; details: in vivo
[28] = molecular target: T5, Poly [ADP-ribose] polymerase 1; test: Inhibition of PARP1 (unknown origin) by ELISA
[29] = molecular target: Wee1-like protein kinase (Homo sapiens, UniProt P30291); test: Displacement of tracer 178 from WEE1 (unknown origin) incubated for 1 hr by Lantha Screen assay
[30] = test system: NCI-H460; test: Inhibition of cell proliferation in human NCI-H460 cells incubated for 4 days by MTT assay; assay type: functional, cell-based; details: NCI-H460, 96 h
[31] = molecular target: T3, ATR/ATRIP; test: Inhibition of full-length human recombinant FLAG-tagged ATR/c-Myc-tagged ATRIP using p53 as substrate incubated for 30 mins in presence of ATP by fluorescence based assay; assay type: protein-complex assay
[32] = test system: DU-145; test: Inhibition of cell proliferation in human DU-145 cells incubated for 4 days by MTT assay; assay type: functional, cell-based; details: DU-145, 96 h
[33] = molecular target: T5, Poly [ADP-ribose] polymerase 1; test: Inhibition of N-terminal GST-tagged recombinant human PARP1 (2 to 1014 residues) expressed in Sf9 insect cells incubated for 1 hr by colorimetric assay

T4 sequence (P42336 whole entry, canonical isoform): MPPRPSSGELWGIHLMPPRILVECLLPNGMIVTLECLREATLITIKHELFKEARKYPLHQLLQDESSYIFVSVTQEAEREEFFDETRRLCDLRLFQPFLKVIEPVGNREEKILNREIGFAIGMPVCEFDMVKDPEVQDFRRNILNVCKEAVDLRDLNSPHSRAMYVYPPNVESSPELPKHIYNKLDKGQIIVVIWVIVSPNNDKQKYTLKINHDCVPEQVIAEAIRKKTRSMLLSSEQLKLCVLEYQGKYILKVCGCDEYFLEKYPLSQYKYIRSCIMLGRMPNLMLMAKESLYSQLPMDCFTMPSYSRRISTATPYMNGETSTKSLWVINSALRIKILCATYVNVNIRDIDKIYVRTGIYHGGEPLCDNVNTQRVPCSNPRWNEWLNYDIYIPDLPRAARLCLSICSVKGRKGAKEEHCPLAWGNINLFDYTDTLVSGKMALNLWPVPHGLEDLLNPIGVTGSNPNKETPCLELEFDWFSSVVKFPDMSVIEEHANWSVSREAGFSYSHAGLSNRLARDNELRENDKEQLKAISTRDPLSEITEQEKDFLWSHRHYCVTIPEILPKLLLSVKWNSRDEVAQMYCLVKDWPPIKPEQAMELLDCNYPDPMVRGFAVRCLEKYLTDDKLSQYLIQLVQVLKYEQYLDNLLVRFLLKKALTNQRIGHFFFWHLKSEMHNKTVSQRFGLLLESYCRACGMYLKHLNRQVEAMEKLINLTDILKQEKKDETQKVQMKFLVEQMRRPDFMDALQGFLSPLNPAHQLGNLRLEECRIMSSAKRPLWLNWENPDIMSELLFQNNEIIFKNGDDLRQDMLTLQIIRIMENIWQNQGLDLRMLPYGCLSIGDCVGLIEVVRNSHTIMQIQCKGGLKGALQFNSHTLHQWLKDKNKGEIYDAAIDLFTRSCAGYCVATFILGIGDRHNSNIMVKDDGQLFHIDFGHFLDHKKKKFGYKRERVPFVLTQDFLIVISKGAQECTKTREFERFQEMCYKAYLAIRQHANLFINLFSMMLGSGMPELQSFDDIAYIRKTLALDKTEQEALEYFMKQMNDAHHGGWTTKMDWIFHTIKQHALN
T2 sequence (P78527 whole entry): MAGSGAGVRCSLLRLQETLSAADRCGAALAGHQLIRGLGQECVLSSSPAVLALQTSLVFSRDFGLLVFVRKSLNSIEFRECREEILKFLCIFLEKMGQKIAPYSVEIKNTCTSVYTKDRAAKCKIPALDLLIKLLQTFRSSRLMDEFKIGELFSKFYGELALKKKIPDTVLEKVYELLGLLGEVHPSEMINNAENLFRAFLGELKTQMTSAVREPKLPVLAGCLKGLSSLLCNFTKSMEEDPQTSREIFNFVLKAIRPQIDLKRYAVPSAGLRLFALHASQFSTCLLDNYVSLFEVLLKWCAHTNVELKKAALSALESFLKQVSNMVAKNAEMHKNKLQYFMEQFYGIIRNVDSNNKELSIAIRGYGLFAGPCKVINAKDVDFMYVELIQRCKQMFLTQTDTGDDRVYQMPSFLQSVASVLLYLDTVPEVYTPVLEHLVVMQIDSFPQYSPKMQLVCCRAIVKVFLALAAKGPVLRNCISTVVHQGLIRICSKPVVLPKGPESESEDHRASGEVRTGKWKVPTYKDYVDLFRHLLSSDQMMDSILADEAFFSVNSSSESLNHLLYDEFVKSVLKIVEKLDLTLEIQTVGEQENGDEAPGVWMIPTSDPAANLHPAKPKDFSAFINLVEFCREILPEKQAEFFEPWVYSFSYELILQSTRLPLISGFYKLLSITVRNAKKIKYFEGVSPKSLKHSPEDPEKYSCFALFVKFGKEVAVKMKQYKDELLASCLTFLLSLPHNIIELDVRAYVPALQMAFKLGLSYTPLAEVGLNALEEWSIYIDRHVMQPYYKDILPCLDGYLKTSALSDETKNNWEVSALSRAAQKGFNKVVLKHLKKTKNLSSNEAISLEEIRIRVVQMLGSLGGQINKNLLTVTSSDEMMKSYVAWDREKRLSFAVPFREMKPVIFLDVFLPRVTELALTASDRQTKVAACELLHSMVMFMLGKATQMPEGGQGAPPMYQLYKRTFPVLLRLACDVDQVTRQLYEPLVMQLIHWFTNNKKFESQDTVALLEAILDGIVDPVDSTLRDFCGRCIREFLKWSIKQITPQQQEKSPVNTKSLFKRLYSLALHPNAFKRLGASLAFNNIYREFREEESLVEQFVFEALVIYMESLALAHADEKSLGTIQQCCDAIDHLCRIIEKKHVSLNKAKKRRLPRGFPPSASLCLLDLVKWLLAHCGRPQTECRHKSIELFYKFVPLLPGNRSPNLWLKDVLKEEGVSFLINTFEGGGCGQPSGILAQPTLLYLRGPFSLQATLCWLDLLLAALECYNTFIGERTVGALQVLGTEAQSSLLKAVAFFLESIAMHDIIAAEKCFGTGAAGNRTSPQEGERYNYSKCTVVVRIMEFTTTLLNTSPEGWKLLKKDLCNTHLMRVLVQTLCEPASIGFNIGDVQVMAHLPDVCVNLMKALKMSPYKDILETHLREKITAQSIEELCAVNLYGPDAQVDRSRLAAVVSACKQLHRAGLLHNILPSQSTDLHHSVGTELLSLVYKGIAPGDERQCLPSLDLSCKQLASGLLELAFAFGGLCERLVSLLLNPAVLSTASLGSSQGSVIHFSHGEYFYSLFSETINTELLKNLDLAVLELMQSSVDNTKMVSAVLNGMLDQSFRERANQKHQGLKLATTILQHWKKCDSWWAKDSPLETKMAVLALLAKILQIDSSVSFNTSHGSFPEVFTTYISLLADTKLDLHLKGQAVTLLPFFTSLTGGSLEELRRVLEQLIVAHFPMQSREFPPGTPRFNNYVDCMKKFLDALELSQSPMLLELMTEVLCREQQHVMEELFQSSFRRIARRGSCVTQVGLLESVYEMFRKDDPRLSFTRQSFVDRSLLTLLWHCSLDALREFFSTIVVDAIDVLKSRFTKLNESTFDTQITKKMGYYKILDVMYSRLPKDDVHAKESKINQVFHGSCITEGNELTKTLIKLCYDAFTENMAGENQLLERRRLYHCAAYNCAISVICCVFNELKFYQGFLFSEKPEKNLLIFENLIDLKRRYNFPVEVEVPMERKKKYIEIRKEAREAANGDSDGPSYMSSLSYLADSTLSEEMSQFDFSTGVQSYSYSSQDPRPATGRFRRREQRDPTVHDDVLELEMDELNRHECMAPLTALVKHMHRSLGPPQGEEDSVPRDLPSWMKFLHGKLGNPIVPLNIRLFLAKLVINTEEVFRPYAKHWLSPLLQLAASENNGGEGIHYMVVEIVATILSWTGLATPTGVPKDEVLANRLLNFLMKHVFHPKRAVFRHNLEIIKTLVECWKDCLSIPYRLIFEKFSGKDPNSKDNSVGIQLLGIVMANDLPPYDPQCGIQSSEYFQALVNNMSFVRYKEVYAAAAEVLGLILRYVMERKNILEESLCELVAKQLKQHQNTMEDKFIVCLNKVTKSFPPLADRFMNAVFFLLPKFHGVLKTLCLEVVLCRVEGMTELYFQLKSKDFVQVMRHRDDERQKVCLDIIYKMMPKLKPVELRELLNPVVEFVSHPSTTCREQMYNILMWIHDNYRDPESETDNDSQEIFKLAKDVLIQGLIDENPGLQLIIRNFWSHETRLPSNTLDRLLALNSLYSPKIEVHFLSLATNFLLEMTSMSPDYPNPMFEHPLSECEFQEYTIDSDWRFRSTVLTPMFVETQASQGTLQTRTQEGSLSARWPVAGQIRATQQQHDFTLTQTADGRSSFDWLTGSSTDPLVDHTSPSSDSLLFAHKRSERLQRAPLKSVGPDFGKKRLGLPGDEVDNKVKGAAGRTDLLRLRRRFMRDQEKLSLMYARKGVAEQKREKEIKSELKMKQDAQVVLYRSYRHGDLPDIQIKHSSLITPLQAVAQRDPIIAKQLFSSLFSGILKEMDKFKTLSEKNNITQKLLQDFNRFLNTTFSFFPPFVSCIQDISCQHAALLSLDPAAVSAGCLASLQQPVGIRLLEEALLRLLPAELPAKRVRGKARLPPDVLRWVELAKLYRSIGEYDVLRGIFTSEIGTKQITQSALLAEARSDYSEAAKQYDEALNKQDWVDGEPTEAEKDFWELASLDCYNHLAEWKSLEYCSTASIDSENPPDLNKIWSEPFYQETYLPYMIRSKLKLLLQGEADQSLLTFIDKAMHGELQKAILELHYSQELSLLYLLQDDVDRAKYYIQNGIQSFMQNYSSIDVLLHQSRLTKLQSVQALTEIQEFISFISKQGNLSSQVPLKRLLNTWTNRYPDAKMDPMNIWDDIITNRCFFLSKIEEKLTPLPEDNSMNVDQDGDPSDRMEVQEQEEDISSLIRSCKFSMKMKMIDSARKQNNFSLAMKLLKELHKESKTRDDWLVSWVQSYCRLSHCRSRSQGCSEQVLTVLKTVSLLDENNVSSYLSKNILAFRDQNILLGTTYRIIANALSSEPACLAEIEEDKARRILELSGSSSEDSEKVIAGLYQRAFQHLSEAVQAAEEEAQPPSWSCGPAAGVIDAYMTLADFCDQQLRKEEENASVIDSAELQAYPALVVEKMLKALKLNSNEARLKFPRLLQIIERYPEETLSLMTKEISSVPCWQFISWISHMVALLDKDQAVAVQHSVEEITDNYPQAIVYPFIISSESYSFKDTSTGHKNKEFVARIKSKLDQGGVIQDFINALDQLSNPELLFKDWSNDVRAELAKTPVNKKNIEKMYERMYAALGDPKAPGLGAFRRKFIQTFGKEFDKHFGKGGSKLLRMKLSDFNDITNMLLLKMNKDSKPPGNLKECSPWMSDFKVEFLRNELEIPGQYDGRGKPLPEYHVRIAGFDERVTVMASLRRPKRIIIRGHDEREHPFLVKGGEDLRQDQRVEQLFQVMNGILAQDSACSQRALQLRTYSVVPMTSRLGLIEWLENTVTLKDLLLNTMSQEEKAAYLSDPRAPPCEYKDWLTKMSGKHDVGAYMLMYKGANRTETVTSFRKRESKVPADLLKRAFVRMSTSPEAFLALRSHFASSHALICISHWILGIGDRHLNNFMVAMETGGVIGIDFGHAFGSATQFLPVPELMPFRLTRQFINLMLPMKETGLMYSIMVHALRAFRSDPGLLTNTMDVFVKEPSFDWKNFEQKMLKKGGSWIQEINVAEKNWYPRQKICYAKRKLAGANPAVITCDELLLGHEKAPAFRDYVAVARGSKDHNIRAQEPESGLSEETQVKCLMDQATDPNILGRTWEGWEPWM

C=CCn1c(=O)c2cnc(Nc3ccc(N4CCN(C)CC4)cc3)nc2n1-c1cccc(C(C)(C)O)n1 [ADAVOSERTIB]
IC50 [1]: 284 nM

CN(C)CCCOc1ncc(-c2ccc3ncc4c(c3c2)C2(CCC2)C(=O)N4C)cc1NS(=O)(=O)C(F)(F)F
IC50 [2]: 1 nM
IC50 [3]: 1 nM

C[C@@H]1COCCN1c1nc(-c2nncc3[nH]ccc23)nc2c1OC1CC2(S(C)(=O)=O)C1
IC50 [4]: 104 nM
IC50 [5]: 20.3 nM

CC(C)n1c(=O)n(C)c2cnc3ccc(-c4ccc(OCCCN(C)C)nc4)cc3c21
Ratio IC50 [6]: > 1000
IC50 [7]: > 10 µM
IC50 [8]: 3.98 nM
Ratio IC50 [9]: > 1000
IC50 [10]: > 30 µM
IC50 [11]: > 10 µM
Ratio IC50 [12]: > 1000

Cc1ncc(-c2cc(NC[C@@H](C)c3cccc4c(-c5noc(=O)[nH]5)ccnc34)ncn2)cn1
IC50 [13]: 39 nM

O=c1[nH]c(N[C@H]2CC[C@@H](Oc3cc(N4CCOCC4)cc4nccnc34)CC2)ncc1F
Ki [14]: < 100 nM

C[C@@H]1COC[C@H]2COc3c(nc(-c4ccnc5[nH]ccc45)nc3C3(C#N)CC3)N21
IC50 [15]: 10 nM
IC50 [5]: 456 nM

Nc1ncc(-c2nc(N3CCOCC3)nc(N3CCN(C(=O)c4cc(Cc5n[nH]c(=O)c6ccccc56)ccc4F)CC3)n2)cn1
IC50 [16]: 1050 nM
IC50 [17]: 1190 nM
IC50 [18]: 426 nM
IC50 [19]: 94 nM
IC50 [20]: 0.78 nM

CN1CCN(c2ccc(Nc3cc4c(cn3)C(=O)N(c3ccccc3Cl)C3=NCCN34)cc2)CC1
IC50 [1]: 154 nM

NC(=O)c1cccc2cc(C(=O)N3CCN(c4nc(-c5cnc(N)cc5C(F)(F)F)nc(N5CCOCC5)n4)CC3)oc12
IC50 [16]: 193 nM
IC50 [17]: 3410 nM
IC50 [18]: 166 nM

Nc1cc(C(F)(F)F)c(-c2nc(N3CCOCC3)nc(N3CCN(C(=O)c4cc(Cc5n[nH]c(=O)c6ccccc56)ccc4F)CC3)n2)cn1
IC50 [16]: 342 nM
IC50 [17]: 3290 nM
IC50 [18]: 264 nM
IC50 [19]: 81.7 nM

COc1ccccc1NC(=O)c1ccc(NC(=O)N2CCN(C(=O)c3cc(Cc4n[nH]c(=O)c5ccccc45)ccc3F)CC2)cc1
IC50 [21]: 6.45 nM
IC50 [20]: 0.59 nM
IC50 [22]: 34.8 nM

C[C@@H]1CN(c2cc(O[C@H]3CC[C@@H](Nc4ncccn4)CC3)c3nccnc3c2)CCO1
Ki [14]: < 100 nM

C[C@@H]1COC[C@H]2COc3c(nc(-c4ccnc5[nH]ccc45)nc3C3(S(C)(=N)=O)CC3)N21 (some centres not stated)
IC50 [15]: 4 nM
IC50 [5]: 699 nM

CNc1nc2ccc(F)cc2n1-c1nc(-c2ccnn2C)cc(N2CCOC[C@H]2C)n1
IC50 [23]: < 10 µM
IC50 [24]: < 500 nM
IC50 [25]: < 10 µM

Cc1cc2ncnn2cc1Nc1ncc2c(n1)C1(CCC3(CC3)CC1)C(=O)N2C
bioavailability [26]: 83%
Cmax [27]: 2170 nM

C[C@@H]1COCCN1c1nc(-c2c(N)ncc3[nH]ccc23)nc2c1OC1CC2(S(C)(=O)=O)C1
IC50 [4]: 62.1 nM
IC50 [5]: 1.36 nM

C[C@H]1CN(C(=O)c2cc(Cc3n[nH]c(=O)c4c3CCCC4)ccn2)CCN1C(=O)C(=O)C1CC1
IC50 [28]: < 200 nM

CC(C)n1c(=O)n(C)c2cnc3ccc(-c4ccc(OCCCN5CCCC5)nc4)cc3c21
Ratio IC50 [6]: > 1000
IC50 [7]: > 10 µM
IC50 [8]: 1.59 nM
Ratio IC50 [9]: > 1000
IC50 [10]: > 30 µM
IC50 [11]: > 10 µM
Ratio IC50 [12]: > 1000

Cc1cc2ncnn2cc1Nc1ncc2c(n1)C1(CCC(C)(C)CC1)C(=O)N2C
bioavailability [26]: 114%

C[C@@H]1COCCN1c1nc(C(C)(C)C#N)c2[nH]nc(-c3ccn[nH]3)c2n1
IC50 [15]: 3 nM
IC50 [5]: 55 nM

C[C@@H]1COCCN1c1cc(-c2ccnn2C)nc(-n2c(NCCO)nc3ccc(F)cc32)n1
IC50 [23]: < 10 µM
IC50 [24]: < 500 nM
IC50 [25]: < 10 µM

COc1ccc(NC(=O)c2ccc(NC(=O)N3CCN(C(=O)c4cc(Cc5n[nH]c(=O)c6ccccc56)ccc4F)CC3)cc2)cc1
IC50 [21]: 4.15 nM
IC50 [20]: 0.25 nM
IC50 [22]: 13.5 nM

Nc1ncc(-c2nc3c(c(N4CCOCC4)n2)CCN(C(=O)c2cc(Cc4n[nH]c(=O)c5ccccc45)ccc2F)C3)cn1
IC50 [16]: 211 nM
IC50 [17]: 443 nM
IC50 [18]: 81 nM

C=CCn1c(=O)c2cnc(Nc3ccc4c(c3)OC[C@@H]3CN(C)CCN43)nc2n1-c1ccc(C(C)(C)O)cn1
IC50 [29]: 2.49 nM

NC(=O)c1cccc2cc(C(=O)N3CCN(c4nc(-c5cnc(N)nc5)nc(N5CCOCC5)n4)CC3)oc12
IC50 [16]: 94 nM
IC50 [17]: 4120 nM
IC50 [18]: 61 nM
IC50 [19]: 5.8 nM
IC50 [20]: 6.3 nM

C[C@@H]1COCCN1c1cc(-c2ccnn2C)c2ncc(-c3ccn[nH]3)n2n1
IC50 [30]: 907 nM
IC50 [31]: 938 nM
IC50 [32]: 1220 nM

CC(C)(C)CC(=O)C(=O)N1CCN(C(=O)c2cc(Cc3n[nH]c(=O)c4c3CCCC4)ccc2F)CC1
IC50 [28]: < 200 nM

Cc1ccc(-c2cc(N3CCOC[C@H]3C)nn3c(-c4ccn[nH]4)cnc23)cn1
IC50 [30]: 322 nM
IC50 [31]: 379 nM
IC50 [32]: 914 nM

C[C@@H]1CN(c2ccc(Nc3cc4c(cn3)C(=O)N(c3c(Cl)cccc3Cl)C3=NCCN34)cc2)C[C@H](C)N1C
IC50 [1]: 105 nM

NC(=O)c1cccc2cn(-c3ccc([C@@]4(F)CCCNC4)cc3)nc12
IC50 [33]: < 100 nM

Cc1ncc(-c2cc(NC[C@H](C)c3cccc4c(C5=NCCN5)ccnc34)ncn2)cn1
IC50 [13]: 122 nM

C=CCn1c(=O)c2cnc(Nc3ccc4c(c3)OC[C@@H]3C[C@@H](N(C)C)CN43)nc2n1-c1ccc(C(C)(C)O)cn1
IC50 [29]: 4.78 nM

COc1ccc(Nc2cc(-c3ncnc4cc(N5CCOCC5)ccc34)c(F)cc2Cl)nn1
IC50 [13]: 165 nM

Cc1cc2ncnn2cc1Nc1ncc2c(n1)n(N1CCOCC1)c(=O)n2C
bioavailability [26]: 96.4%

NC(=O)c1cccc2cn(-c3ccc([C@]4(F)CCCNC4)cc3)nc12
IC50 [33]: < 100 nM

CCc1ncc(S(=O)(=O)Nc2cc(-c3ccc4ncc5c(c4c3)C3(CCC3)C(=O)N5C)cnc2OCCCN(C)C)s1
IC50 [2]: 1 nM
IC50 [3]: 1 nM

Nc1cc(C(F)(F)F)c(-c2nc3c(c(N4CCOCC4)n2)CCN(C(=O)c2cc(Cc4n[nH]c(=O)c5ccccc45)ccc2F)C3)cn1
IC50 [16]: 775 nM
IC50 [17]: 155 nM
IC50 [18]: 504 nM
